Results taken from the C3SDB collision cross section collection.
“And” between values parts separate entries of the source, which are not always exact repeats. Identical values can stand only once.

Key:
[1] = instrument: DT, stepped-field
[2] = [M+Na]+; instrument: DT; stepped-field
[3] = instrument: DT, single field, calibrated with Agilent tune mix (Agilent)
[4] = instrument: TW, calibrated with phosphatidylcholines (ESI+) and phosphatidylethanolamines (ESI-)
[5] = [M+H]+; instrument: TW; calibrated with polyalanine
[6] = instrument: DT, stepped-field; remark: listed apart in the source
[7] = instrument: DT, single field, calibrated with Agilent tune mix (Agilent); remark: listed apart in the source

## CCCCC/C=C\C/C=C\CCCCCCCC(=O)O[C@H](COCCCCCCCCCCCCCCCC)COP(=O)([O-])OCC[N+](C)(C)C [PC(o34:2)]
[1]; [M+H]+
  collision cross section (N2): 297.2 Å²

## CCCCC/C=C\C/C=C\CCCCCCCC(=O)O[C@H](COCCCCCCCCCCCCCCCCCC)COP(=O)([O-])OCC[N+](C)(C)C [PC(o36:2)]
[1]; [M+H]+
  collision cross section (N2): 303.1 Å²

## CCCCCC/C=C\CCCCCCCCCC(=O)O[C@H](COC(=O)CCCCCCCCCCCCCCC)COP(=O)(O)OCCN [PE(16:0/18:1)]
[1]; [M+H]+
  collision cross section (N2): 286.1 Å²

## CCCCCCCC/C=C\CCCCCCCCCC(=O)O[C@H](COC(=O)CCCCCCCCCCCC)COP(=O)(O)OCCN [PE(33:1)]
[1]; [M-H]-
  collision cross section (N2): 266.7 Å²

## CCCCC/C=C\C/C=C\C/C=C\CCCCC(=O)O[C@H](COCCCCCCCCCCCCCCCC)COP(=O)(O)OCCN [PE(o34:3)]
[2]
  collision cross section (N2): 278 Å²
[1]; [M-H]-
  collision cross section (N2): 266.5 Å²

## CCCCCCCC/C=C\CCCCCCCCCC(=O)O[C@H](COC(=O)CCCCCCCCCCC)COP(=O)(O)OC[C@@H](O)CO [PG(16:0/16:1)]
[1]; [M-H]-
  collision cross section (N2): 268.7 Å²

## CCCCCCCCCC/C=C\CCCCCCCCCC(=O)O[C@H](COC(=O)CCCCCCCCCCC)COP(=O)(O)OC[C@@H](O)CO [PG(16:0/18:1)]
[1]; [M-H]-
  collision cross section (N2): 276.7 Å² and 277.1 Å² and 277 Å²

## CC/C=C\C/C=C\C/C=C\CCCCCCCC(=O)O[C@H](COC(=O)CCCCCCCCC/C=C\CCCCCCCC)COP(=O)(O)OC[C@@H](O)CO [PG(38:4)]
[3]; [M+NH4]+
  collision cross section (N2): 294.5 Å²
[3]; [M+Na]+
  collision cross section (N2): 290.2 Å²
[3]; [M-H]-
  collision cross section (N2): 278.7 Å²
[1]; [M-H]-
  collision cross section (N2): 285.6 Å²
[4]; [M+Na]+
  collision cross section (N2): 287.8 Å²
[4]; [M-H]-
  collision cross section (N2): 277.7 Å²

## CCCCCCCCCCCCCCCC(=O)OC[C@H](COP(=O)(O)O[C@H]1C(O)C(O)C(O)[C@@H](O)C1O)OC(=O)CCCCCCCCCCCCC (some centres undefined) [PI(14:0/16:0)]
[1]; [M-H]-
  collision cross section (N2): 280.1 Å²

## CCCCC/C=C\C/C=C\CCCCCCCC(=O)O[C@H](COC(=O)CCCCCCCCCCC)COP(=O)(O)O[C@H]1C(O)C(O)C(O)[C@@H](O)C1O (some centres undefined) [PI(14:1/16:1)]
[1]; [M-H]-
  collision cross section (N2): 283.6 Å²

## CCCCCCCC/C=C\CCCCCCCCCC(=O)O[C@H](COC(=O)CCCCCCCCCCC)COP(=O)(O)O[C@H]1C(O)C(O)C(O)[C@@H](O)C1O (some centres undefined) [PI(16:0/16:1)]
[1]; [M-H]-
  collision cross section (N2): 284.6 Å²

## CCCC/C=C\CCCCCCCC(=O)OC[C@H](COP(=O)(O)O[C@H]1C(O)C(O)C(O)[C@@H](O)C1O)OC(=O)CCCCCCC/C=C\CCCCCCCC (some centres undefined) [PI(16:1/16:1)]
[1]; [M-H]-
  collision cross section (N2): 282.9 Å²

## CCCC/C=C\CCCCCCCC(=O)OC[C@H](COP(=O)(O)O[C@H]1C(O)C(O)C(O)[C@@H](O)C1O)OC(=O)CCCCCCCCC/C=C\CCCCCCCCCC (some centres undefined) [PI(18:1/18:1)]
[1]; [M-H]-
  collision cross section (N2): 295.9 Å² and 296.2 Å²

## CCCCC/C=C\C/C=C\C/C=C\CCCCC(=O)O[C@H](COC(=O)CCCCCCCCC/C=C\C/C=C\CCCCC)COP(=O)(O)O[C@H]1C(O)C(O)C(O)[C@@H](O)C1O (some centres undefined) [PI(38:5)]
[3]; [M+H]+
  collision cross section (N2): 299.9 Å²
[3]; [M+Na]+
  collision cross section (N2): 298.7 Å²
[3]; [M-H]-
  collision cross section (N2): 291.8 Å²
[1]; [M-H]-
  collision cross section (N2): 302 Å² and 299.6 Å²
[4]; [M+Na]+
  collision cross section (N2): 294.5 Å²
[4]; [M-H]-
  collision cross section (N2): 290.9 Å²

## CCCCC/C=C\C/C=C\CCCCCCCCCCCC(=O)O[C@H](COC(=O)CCCCCCCCCCCCC)COP(=O)(O)OC[C@H](N)C(=O)O [PS(36:2)]
[3]; [M+H]+
  collision cross section (N2): 283 Å²
[3]; [M+Na]+
  collision cross section (N2): 284.2 Å²
[3]; [M-H]-
  collision cross section (N2): 277.5 Å²
[1]; [M-H]-
  collision cross section (N2): 285 Å² and 286.5 Å²
[4]; [M-H]-
  collision cross section (N2): 277.4 Å²

## CCCCC/C=C\C/C=C\C/C=C\CCCCCCC(=O)O[C@H](COC(=O)CCCCCCC/C=C\CCCCCCCC)COP(=O)(O)OC[C@H](N)C(=O)O [PS(38:4)]
[3]; [M+Na]+
  collision cross section (N2): 290.6 Å²
[1]; [M-H]-
  collision cross section (N2): 291.4 Å²
[4]; [M-H]-
  collision cross section (N2): 280.9 Å²

## CCCCC/C=C\C/C=C\CCCCCCCCCCCC(=O)O[C@H](COC(=O)CCCCCCC/C=C\C/C=C\CCCCC)COP(=O)(O)OC[C@H](N)C(=O)O [PS(40:4)]
[3]; [M+H]+
  collision cross section (N2): 293.2 Å²
[3]; [M+Na]+
  collision cross section (N2): 297.6 Å²
[3]; [M-H]-
  collision cross section (N2): 286.9 Å²
[1]; [M-H]-
  collision cross section (N2): 297.6 Å²

## O=c1ccn([C@@H]2O[C@H](CO)[C@@H](O)[C@H]2O)c(=O)[nH]1 [Uridine]
[5]
  collision cross section (N2): 152 Å²
[6]; [M+Na]+
  collision cross section (N2): 166 Å²
[7]; [M+Na]+
  collision cross section (N2): 160.1 Å²

## O=c1[nH]c(=O)c2[nH]cnc2[nH]1 [Xanthine]
[5]
  collision cross section (N2): 124 Å²
[6]; [M+H]+
  collision cross section (N2): 138.11 Å²
[6]; [M+Na]+
  collision cross section (N2): 152.65 Å²
[7]; [M+H]+
  collision cross section (N2): 130.3 Å²
